From publication PMC5955599, “The HTLV-1 gp21 fusion peptide inhibits antigen specific T-cell activation in-vitro and in mice” (PLoS Pathogens, 2018)

Experiments:
C57BL/6 female mice = assay: MOG35-55-induced experimental autoimmune encephalomyelitis (EAE); assay type: in vivo, mouse
Procedure: (§1) (A-B) MOG35-55–antigen specific T-cells were activated by irradiated MOG35-55 presenting APCs, in the presence of HTLV FP or HTLV Scr at 10μM. (A) The proliferative responses were assessed by H^3-thymidine incorporation assay, and normalized to the proliferation of non-activated T-cells. The data is presented as mean inhibition of proliferation. n = 12. (B) IFN-γ was measured by ELISA assay. n = 12. (C-D) EAE was induced in C57BL/6 female mice that were treated with a single dose of HTLV FP, HTLV Scr or vehicle. […] (C) Direct clinical measurement of EAE phenotype in a 5-point scale with increased disease symptoms correlating with higher score value. The data is presented as mean EAE clinical score. (D) Mice were weighed the day before EAE induction, and the change (as a percentage) in weight was recorded. The data is presented as mean change from the initial weight. One-way ANOVA was used for statistical analysis. ^a HTLV FP ≠ Vehicle; ^b HTLV FP ≠ Vehicle & HTLV Scr; ^c HTLV FP ≠ HTLV Scr. ^a,b,cP<0.05. (E) Spleenocytes were harvested at 26 DPI and stimulated using MOG35-55. The proliferative responses were assessed by H^3-thymidine incorporation assay and normalized to the proliferation of non-activated T-cells. The data is presented as counts per minute (CPM). n = 7. (F-G) Spleenocytes were harvested at 26 DPI and stimulated using MOG35-55. Media was collected 48 hours following activation and secretion of IFN-γ and IL4 was measured by ELISA assay. […] One-way ANOVA was used for statistical analysis. *P<0.05;**P<0.01;***P<0.001; ns, not significant.
EAE was induced in 9-week-old wild type and homozygous C57BL/6 female mice (Harlan Laboratories Israel/ Weizmann Institute animal facilities) by injecting a peptide comprising residues 35–55 of mouse myelin oligodendrocyte glycoprotein (MOG35–55; PolyPeptide Laboratories, Strasbourg, France). Mice were injected subcutaneously above the lumbar spinal cord with 100 μl of emulsion containing 200 μg/mouse of the encephalitogenic peptide in complete Freund’s adjuvant (BD-Difco) enriched with 250 μg/mouse of heat-inactivated Mycobacterium tuberculosis (BD-Difco) at 0 days post-induction (DPI). The HTLV FP was dissolved in PBS and added to the emulsion (1mg/kg). Pertussis toxin (Enzo Life Sciences) at a dose of 300 ng per mouse was injected intraperitoneally immediately after the encephalitogenic injection, as well as at […]. EAE disease was scored using a five-point grading with 0 for no clinical disease; 1, tail weakness; 2, paraparesis (incomplete paralysis of one or two hindlimbs); 3, paraplegia (complete paralysis of one or two hindlimbs); 4, paraplegia with forelimb weakness or paralysis; 5, moribund or dead animals. The mice were examined daily.
EAE was induced in C57BL/6 female mice that were either treated with a single dose of HTLV FP or vehicle. […] (A) Direct clinical measurement of EAE phenotype in a 5-point scale with increased disease symptoms correlating with higher score value. The data is presented as mean EAE clinical score. (B) Mice were weighed the day before EAE induction, and the change (as a percentage) in weight was recorded. The data is presented as mean change from the initial weight. Student’s t-test was used for statistical analysis. *P<0.05; **P<0.01;***P<0.001. (TIF) Click here for additional data file.

[1] = tested on: MOG35-55-reactive T-cells (spleenocytes harvested at 26 DPI); assay: Ex-vivo MOG35-55 re-stimulation of spleenocytes from EAE mice; assay type: in vivo, mouse; conditions: mice treated with single dose 1mg/kg
Procedure: as §1, with “Fig 3 Administration of HTLV FP alleviates MOG35-55-induced EAE. (A-B)” for “(A-B)”
We then performed an additional EAE experiment in which mice were treated with a single dose of HTLV FP (1mg/kg), HTLV Scr (1mg/kg) or vehicle. […] As disease manifestation was milder compared to the previous experiment, we were able to monitor animals for a longer period of time. […]

[2] = harvested at 26 DPI, media 48 hours following activation, ELISA, n>8, compared to vehicle and HTLV Scr groups

For “AVPVAVWLVSALAMGAGVAGGITGSMSLASGKS [HTLV FP, gp21 fusion peptide of HTLV-1, MT-2 isolate]”, the “clinical symptoms of a cage of treated mice at DPI 17” value (C57BL/6 female mice; additional experiment, S5 and S6 Movies) was “mild clinical symptoms”, the “mice exhibiting no clinical manifestation at DPI 17” value (C57BL/6 female mice; additional experiment, S6 Movie) was 3 out of 5 and the “clinical symptoms of a cage of treated mice at DPI 9” value (C57BL/6 female mice; initial experiment, S3 Movie) was “no observed clinical symptoms”. The “mice exhibiting mild clinical symptoms at DPI 14” value (C57BL/6 female mice; initial experiment, S4 Movie, rest with no observed clinical signs) was 1 out of 5, the “EAE clinical symptoms, initial experiment” value (C57BL/6 female mice; single dose 1mg/kg added to the MOG35-55/CFA emulsion, vs vehicle, terminated at 14 DPI, 5-point scale) was “only mild clinical symptoms” and the “EAE clinical signs, additional experiment” value (C57BL/6 female mice; single dose 1mg/kg, HTLV FP, HTLV Scr or vehicle, period 11 to 16 DPI, 5-point scale) was “only mild clinical symptoms and weight loss”. The “locomotory behavior, initial experiment” value (C57BL/6 female mice; single dose 1mg/kg, S3 and S4 Movies) was “most of the HTLV FP treated mice exhibited normal locomotory behavior”, the “locomotory behavior, additional experiment” value (C57BL/6 female mice; single dose 1mg/kg, S5 and S6 Movies) was “better locomotory behavior than the HTLV Scr treated mice” and the “weight change, initial experiment” value (C57BL/6 female mice; single dose 1mg/kg, change from initial weight) was “only by minor weight fluctuations”. The “weight loss, additional experiment” value (C57BL/6 female mice; single dose 1mg/kg, period 11 to 16 DPI) was “only mild clinical symptoms and weight loss”, the “first observation of clinical symptoms, initial experiment” value (C57BL/6 female mice; single dose 1mg/kg, vehicle-treated mice first observed at 8 DPI) was 11 DPI and the “IFN-γ secretion of spleenocytes stimulated with MOG35-55” value [1, 2] was “significantly lower IFN-γ secretion”. For the same sequence, the “IL4 secretion of spleenocytes stimulated with MOG35-55” value [1, 2] was “significantly higher IL4 secretion” and the “T-cell proliferative response of spleenocytes stimulated with MOG35-55” value ([1]; spleens harvested at 26 DPI, H3-thymidine incorporation, CPM, n = 7) was “significantly lower in HTLV FP treated spleenocytes compared to HTLV Scr treated spleenocytes”.
